Tests used:
[1] = biological target: T1, squalene synthase (Homo sapiens, UniProt P37268); details: cited from earlier work
T1 sequence (P37268 1-417): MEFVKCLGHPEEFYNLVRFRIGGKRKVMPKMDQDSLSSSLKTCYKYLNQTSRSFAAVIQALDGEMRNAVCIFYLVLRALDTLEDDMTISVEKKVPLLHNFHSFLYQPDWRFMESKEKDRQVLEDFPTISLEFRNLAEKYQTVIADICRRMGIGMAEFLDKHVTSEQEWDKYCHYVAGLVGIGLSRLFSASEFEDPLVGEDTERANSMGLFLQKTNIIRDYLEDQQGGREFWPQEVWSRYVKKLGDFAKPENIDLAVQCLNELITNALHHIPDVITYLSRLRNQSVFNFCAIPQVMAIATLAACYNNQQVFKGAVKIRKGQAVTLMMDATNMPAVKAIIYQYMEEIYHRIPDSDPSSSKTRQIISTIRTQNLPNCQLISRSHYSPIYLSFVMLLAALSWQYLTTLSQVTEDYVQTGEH

[2] = test system: secretion of apo-B from HepG2 cells; assay: Apo-B secretion from HepG2 cells; format: cell-based, human; details: for nature of interaction with ethanol extract of HL: non-linear blending curves, combined total doses 30-250 ug/ml, FIGS. 9-11, 14-35; for nature of interaction with berberine (BBR): non-linear blending, combined total dose 50 ug/ml, FIGS. 36-40
Procedure: In the Examples to follow, Apo-B secretion experiments were carried out on HepG2 cells. These cells were obtained from the American Type Culture Collection (cat #: ATCC HB-8065). HepG2, a human hepatoblastoma-derived cell line, is one of the most commonly used models to study lipoprotein uptake and metabolism in intact human liver. These cells secrete most of the plasma proteins secreted from human liver cells including apolipoprotein-B [38]. In addition, most of the enzymes involved in intra- and extracellular cholesterol metabolism including LCAT, ACAT, HMG-CoA reductase and Cholesterol 7-α-hydroxylase are expressed in these cells.
The effects of HL, KDC and hawthorn extracts, when used in isolation as well as in combination, on the secretion of apo-B from human hepatoma cells, Hep-G2 was determined. Water extracts of Coptis chinesis (Huanglian) and Ku Ding Cha (Ilex kudingcha) were developed and tested; results are indicated in FIGS. 1 and 2, respectively. Ethanolic extracts of Coptis chinesis (Huanglian) and ethyl acetate extracts of Ku Ding Cha (Ilex kudingcha) were also developed and hawthorn extract was used for these experiments shown in FIGS. 3-12.
Additional experiments were subsequently carried out to confirm the synergism between the HL and KDC extracts. Three commonly used approaches including non-linear blending, isobologram and combination index were utilized to determine this interaction.
Determination of a drugs combination index (CI) provides quantitative information of the nature of drug interaction. It is calculated through the following equation: CI=(CA,X/ICX,A)+(CB,X/ICX,B) CA,X and CB,X, are the concentrations of drug A and drug B used in the combination to achieve x % drug effect. ICX,A and ICX,B are the concentrations for single agents to achieve the same effect. A CI of less than, equal to, and more than 1 indicates synergy, additivity, and antagonism, respectively.

[3] = biological target: acyl-CoA: cholesterol acyltransferase (ACAT); details: cited from earlier work
[4] = 1 g/day for 3 months; cited from earlier work
[5] = biological target: T2, CYP2E1 (Homo sapiens, UniProt P05181); details: human liver microsomes, 20 μM; cited from earlier work
T2 construct: incubation of human liver microsomes with BBR; from tissue; host or cells: human liver microsomes
T2 sequence (P05181 whole entry): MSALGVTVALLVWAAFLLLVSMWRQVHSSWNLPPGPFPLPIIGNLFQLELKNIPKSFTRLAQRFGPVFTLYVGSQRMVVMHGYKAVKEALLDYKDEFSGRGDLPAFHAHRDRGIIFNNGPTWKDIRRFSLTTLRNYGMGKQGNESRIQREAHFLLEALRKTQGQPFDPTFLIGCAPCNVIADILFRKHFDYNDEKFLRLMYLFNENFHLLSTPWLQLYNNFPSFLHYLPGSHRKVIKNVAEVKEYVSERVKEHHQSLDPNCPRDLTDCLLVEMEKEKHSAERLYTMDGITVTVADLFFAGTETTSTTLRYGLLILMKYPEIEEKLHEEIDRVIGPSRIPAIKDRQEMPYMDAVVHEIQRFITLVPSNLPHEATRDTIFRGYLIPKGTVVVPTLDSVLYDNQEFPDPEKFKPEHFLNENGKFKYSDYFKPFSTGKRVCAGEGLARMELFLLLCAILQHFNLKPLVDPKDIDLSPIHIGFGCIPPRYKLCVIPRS

[6] = test system: LDL receptors; details: Hep G2 cells; cited from earlier work
[7] = oral, 100 mg/day for 2 weeks; cited from earlier work
[8] = test system: Hep G2 cells; details: cited from earlier work
[9] = biological target: T3, CYP2D6 (Homo sapiens, UniProt P10635); details: human liver microsomes, 20 μM; cited from earlier work
T3 construct: incubation of human liver microsomes with BBR; from tissue; host or cells: human liver microsomes
T3 sequence (P10635 whole entry): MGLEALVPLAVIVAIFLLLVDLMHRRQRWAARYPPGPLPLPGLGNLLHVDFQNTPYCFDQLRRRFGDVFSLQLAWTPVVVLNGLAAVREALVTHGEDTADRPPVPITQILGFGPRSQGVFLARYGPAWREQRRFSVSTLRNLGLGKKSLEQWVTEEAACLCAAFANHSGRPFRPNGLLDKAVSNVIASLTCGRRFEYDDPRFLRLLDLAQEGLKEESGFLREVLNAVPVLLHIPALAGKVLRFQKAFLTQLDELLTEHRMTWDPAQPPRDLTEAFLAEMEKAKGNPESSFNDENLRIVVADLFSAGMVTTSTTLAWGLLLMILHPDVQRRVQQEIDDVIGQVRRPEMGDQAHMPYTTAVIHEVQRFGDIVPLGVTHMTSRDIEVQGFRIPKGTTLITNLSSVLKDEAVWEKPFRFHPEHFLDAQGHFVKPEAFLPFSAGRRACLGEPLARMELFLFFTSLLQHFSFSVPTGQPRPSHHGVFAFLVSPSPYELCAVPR

[10] = test system: L929 cells; details: cited from earlier work
[11] = test system: 3T3-L1 adipocytes; details: cited from earlier work
[12] = biological target: T4, CYP3A4 (Homo sapiens, UniProt P08684); details: human liver microsomes, 20 μM; cited from earlier work
T4 construct: incubation of human liver microsomes with BBR; from tissue; host or cells: human liver microsomes
T4 sequence (P08684 whole entry): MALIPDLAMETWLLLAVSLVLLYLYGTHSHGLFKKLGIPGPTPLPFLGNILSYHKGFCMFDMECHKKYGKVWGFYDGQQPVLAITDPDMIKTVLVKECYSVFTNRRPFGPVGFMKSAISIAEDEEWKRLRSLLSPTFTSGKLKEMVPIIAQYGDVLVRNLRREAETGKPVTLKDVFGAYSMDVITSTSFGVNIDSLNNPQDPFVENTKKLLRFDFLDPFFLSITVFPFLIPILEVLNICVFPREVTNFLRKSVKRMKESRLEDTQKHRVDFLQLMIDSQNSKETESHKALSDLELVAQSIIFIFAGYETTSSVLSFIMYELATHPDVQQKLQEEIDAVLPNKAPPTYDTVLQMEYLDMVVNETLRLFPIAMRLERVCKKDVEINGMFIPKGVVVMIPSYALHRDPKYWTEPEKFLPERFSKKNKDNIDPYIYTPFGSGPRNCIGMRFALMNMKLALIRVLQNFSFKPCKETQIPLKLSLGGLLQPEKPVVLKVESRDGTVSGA

[13] = test system: mice; details: mouse, in vivo; cited from earlier work
[14] = biological target: nucleoside triphosphate hydrolase (NTPase); details: cited from earlier work

Compound: O=C(/C=C/c1ccc(O)c(O)c1)O[C@@H]1C[C@](O)(C(=O)O)C[C@@H](O)[C@H]1O [Chlorogenic acid]
- IC50 [1]: 0.1 µM
- nature of interaction with ethanol extract of HL [2]: synergism
- nature of interaction with berberine (BBR) [2]: synergism

Compound: C=C(C)[C@@H]1CC[C@]2(C)CC[C@]3(C)[C@H](CC[C@@H]4[C@@]5(C)CC[C@H](O)C(C)(C)[C@@H]5CC[C@]43C)[C@@H]12 [Lupeol, 3β-Hydroxy-20(29)-lupene]
- IC50 [3]: 48 µM
- nature of interaction with ethanol extract of HL [2]: interacting with HL
- nature of interaction with berberine (BBR) [2]: synergism

Compound: COc1cc2c(cc1OC)-c1cc3ccc(OC)c(OC)c3c[n+]1CC2 [Palmitine chloride, palmitine chloride]
- nature of interaction with berberine (BBR) [2]: interact synergistically

Compound: COc1ccc2cc3[n+](cc2c1OC)CCc1cc2c(cc1-3)OCO2 [berberine]
- reduction of LDL-cholesterol [4]: 25%
- reduction of serum cholesterol concentrations [4]: 29%
- reduction of triglycerides [4]: 35%
- CYP2E1 activity [5]: decrease the activities
- expression of LDL receptors [6]: increases the expression of LDL receptors
- reduction of serum LDL-cholesterol levels [7]: up to 30%
- reduction of serum total cholesterol levels [7]: up to 30%
- synthesis of cholesterol and triglyceride in the cells [8]: inhibit the synthesis of cholesterol and triglyceride
- CYP2D6 activity [9]: decrease the activities
- dose inducing cytotoxicity [10]: greater than 40 μg/ml
- differentiation of 3T3-L1 adipocytes [11]: inhibit differentiation
- CYP3A4 activity [12]: decrease the activities
- lethal dose [13]: exceeding 15 mg/Kg

Compound: C=C(C)[C@@H]1CC[C@]2(CO)CC[C@]3(C)[C@H](CC[C@@H]4[C@@]5(C)CC[C@H](O)C(C)(C)[C@@H]5CC[C@]43C)[C@@H]12 [betulin, lup-20[29]-ene-3β,28-diol]
- IC50 [3]: 83 µM
- nature of interaction with ethanol extract of HL [2]: interacting with HL
- nature of interaction with berberine (BBR) [2]: synergism

Compound: C[C@H]1[C@H](C)CC[C@]2(C(=O)O)CC[C@]3(C)C(=CC[C@@H]4[C@@]5(C)CC[C@H](O)C(C)(C)[C@@H]5CC[C@]43C)[C@H]12 [ursolic acid, 3β-Hydroxy-12-ursen-28-ic acid]
- IC50 [14]: 0.6 µM
- IC50 [3]: 58.8 µM
- nature of interaction with ethanol extract of HL [2]: interacting with HL
- nature of interaction with berberine (BBR) [2]: synergism

Compound: Lipedoside B-III
- IC50 [3]: 269 µM

From patent US8642094B2, “Synergistic pharmaceutical composition, method of making same and use of same” (Afexa Life Sciences Inc., priority 2008, dated 2014)
